Measured values taken from patent publication US20260055103A1, “2,3,4,9-TETRAHYDRO-1H-PYRIDO[3,4-B]INDOLE DERIVATIVES AS ESTROGEN RECEPTOR MODULATORS FOR THE TREATMENT OF CANCER” (Olema Pharmaceuticals, Inc., priority 2022, published 2026).

Target: T1, estrogen receptor (Homo sapiens, UniProt P03372)
T1 construct: endogenous in cells; host or cells: ECC-1 cells
T1 sequence (P03372 1-595): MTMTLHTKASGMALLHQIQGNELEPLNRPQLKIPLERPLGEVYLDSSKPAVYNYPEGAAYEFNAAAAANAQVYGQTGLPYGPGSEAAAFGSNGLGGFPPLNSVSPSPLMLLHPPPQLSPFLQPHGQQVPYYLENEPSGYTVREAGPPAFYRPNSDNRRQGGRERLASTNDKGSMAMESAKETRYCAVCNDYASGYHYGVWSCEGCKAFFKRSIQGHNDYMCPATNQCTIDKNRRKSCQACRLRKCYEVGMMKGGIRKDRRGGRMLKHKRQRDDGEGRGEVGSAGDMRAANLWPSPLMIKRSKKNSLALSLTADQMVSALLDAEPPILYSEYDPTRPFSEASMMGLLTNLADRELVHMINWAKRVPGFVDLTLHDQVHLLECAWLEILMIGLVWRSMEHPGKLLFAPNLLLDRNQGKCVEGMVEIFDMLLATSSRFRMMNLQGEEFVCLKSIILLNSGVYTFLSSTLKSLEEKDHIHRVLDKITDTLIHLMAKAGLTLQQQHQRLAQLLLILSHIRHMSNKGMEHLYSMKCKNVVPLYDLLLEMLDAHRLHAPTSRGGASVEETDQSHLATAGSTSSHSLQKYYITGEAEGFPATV
Assay: Alkaline phosphatase (AP) assay in ECC-1 cells, agonist mode (no E2) and antagonist mode (500 pM E2)
Type: cell-based
Details: 3 days, AP activity normalized to 500 pM E2 alone, agonist mode without E2, antagonist mode with 500 pM E2
Description: ECC-1 cells were trypsinized and resuspended in hormone-depleted media and plated at a density of 15 k cells per well into a 96-well plate for at least 4 hours. Cells were treated with test compounds in the absence of E2 (for agonist mode) or in the presence of 500 pM E2 (for antagonist mode) for 3 days and plates were subsequently frozen at −80° C. Thawed plates were incubated with a chromogenic substrate of AP, p-nitrophenyl phosphate (Thermo Fisher Scientific), for 40 minutes at 42° C., and absorbances were read at 405 nm. AP activity was normalized to the activity of 500 pM E2 alone.
The compound numbers correspond to the compound numbers of Table 1 and 2. Compounds having an activity designated as “+” provided estrogen receptor agonism having (i) at least 80% increase in the E2-normalized signal in the AP assay (agonist mode) and (ii) no more than 80% reduction in the E2-normalized signal in the AP assay (antagonist mode). Compounds having an activity designated as “++” provided estrogen receptor antagonism having (i) between 10% and 80% increase in the E2-normalized signal in the AP assay (agonist mode) and (ii) between 10% and 80% reduction in the E2-normalized signal in the AP assay (antagonist mode).

SMILES	Activity (estrogen receptor modulation, agonism and antagonism)
CCCN1CC(Cc2ccc([C@@H]3c4[nH]c5ccccc5c4C[C@@H](C)N3CC(C)(C)F)s2)C1 [Example I-1, 3-({5-[(1S,3R)-2-(2-fluoro-2-methylpropyl)-3-methyl-1H,2H,3H,4H,9H-pyrido[3,4-b]indol-1-yl]thiophen-2-yl}methyl)-1-propylazetidine]	++ (estrogen receptor antagonism having (i) between 10% and 80% increase in the E2-normalized signal in the AP assay (agonist mode) and (ii) between 10% and 80% reduction in the E2-normalized signal in the AP assay (antagonist mode))
C[C@@H]1Cc2c([nH]c3ccccc23)[C@@H](c2ccc(CC3CN(CCCF)C3)s2)N1CC(C)(C)F [Example I-2, 3-({5-[(1S,3R)-2-(2-fluoro-2-methylpropyl)-3-methyl-1H,2H,3H,4H,9H-pyrido[3,4-b]indol-1-yl]thiophen-2-yl}methyl)-1-(3-fluoropropyl)azetidine]	++ (estrogen receptor antagonism having (i) between 10% and 80% increase in the E2-normalized signal in the AP assay (agonist mode) and (ii) between 10% and 80% reduction in the E2-normalized signal in the AP assay (antagonist mode))
CCCN1CC(Cc2cnc([C@@H]3c4[nH]c5ccccc5c4C[C@@H](C)N3CC(C)(C)F)s2)C1 [Example I-3, 2-[(1S,3R)-2-(2-fluoro-2-methylpropyl)-3-methyl-1H,2H,3H,4H,9H-pyrido[3,4-b]indol-1-yl]-5-[(1-propylazetidin-3-yl)methyl]-1,3-thiazole]	+ (estrogen receptor agonism having (i) at least 80% increase in the E2-normalized signal in the AP assay (agonist mode) and (ii) no more than 80% reduction in the E2-normalized signal in the AP assay (antagonist mode))
C[C@@H]1Cc2c([nH]c3ccccc23)[C@@H](c2ncc(CC3CN(CCCF)C3)s2)N1CC(C)(C)F [Example I-4, 2-[(1S,3R)-2-(2-fluoro-2-methylpropyl)-3-methyl-1H,2H,3H,4H,9H-pyrido[3,4-b]indol-1-yl]-5-{[1-(3-fluoropropyl)azetidin-3-yl]methyl}-1,3-thiazole]	+ (estrogen receptor agonism having (i) at least 80% increase in the E2-normalized signal in the AP assay (agonist mode) and (ii) no more than 80% reduction in the E2-normalized signal in the AP assay (antagonist mode))
Cc1cc(CC2CN(CCCF)C2)sc1[C@@H]1c2[nH]c3ccccc3c2C[C@@H](C)N1CC(C)(C)F [Example I-6, 3-({5-[(1S,3R)-2-(2-fluoro-2-methylpropyl)-3-methyl-1H,2H,3H,4H,9H-pyrido[3,4-b]indol-1-yl]-4-methylthiophen-2-yl}methyl)-1-(3-fluoropropyl)azetidine]	++ (estrogen receptor antagonism having (i) between 10% and 80% increase in the E2-normalized signal in the AP assay (agonist mode) and (ii) between 10% and 80% reduction in the E2-normalized signal in the AP assay (antagonist mode))
CCCN1CC(Cc2ncc([C@@H]3c4[nH]c5ccccc5c4C[C@@H](C)N3CC(C)(C)F)s2)C1 [Example I-7, 5-((1S,3R)-2-(2-fluoro-2-methylpropyl)-3-methyl-2,3,4,9-tetrahydro-1H-pyrido[3,4-b]indol-1-yl)-2-((1-propylazetidin-3-yl)methyl)thiazole]	++ (estrogen receptor antagonism having (i) between 10% and 80% increase in the E2-normalized signal in the AP assay (agonist mode) and (ii) between 10% and 80% reduction in the E2-normalized signal in the AP assay (antagonist mode))
CCCN1CC(Cc2sc([C@@H]3c4[nH]c5ccccc5c4C[C@@H](C)N3CC(C)(C)F)cc2C)C1 [Example I-8, (1S,3R)-2-(2-fluoro-2-methylpropyl)-3-methyl-1-(4-methyl-5-((1-propylazetidin-3-yl)methyl)thiophen-2-yl)-2,3,4,9-tetrahydro-1H-pyrido[3,4-b]indole]	++ (estrogen receptor antagonism having (i) between 10% and 80% increase in the E2-normalized signal in the AP assay (agonist mode) and (ii) between 10% and 80% reduction in the E2-normalized signal in the AP assay (antagonist mode))
